Measured values: patent US10730836B2, “Forms of apremilast” (Johnson Matthey Public Limited Company, priority 2016, dated 2020)
Each block holds one compound with its values, some of them ahead of it.

Assays:
[1] = Solid form stability under stressed conditions (45° C., relative humidity>95%); format: physicochemical; settings: under 45° C. and humid conditions (relative humidity>95%)
Description: (§1) Apremilast Form H, a solvate, is a unique crystalline phase. […] FIG. 1 is a representative XPRD pattern for a representative sample of apremilast Form H made according to Example 1. Apremilast Form H is stable under stressed conditions, i.e. at under 45° C. and humid conditions (relative humidity>95%).
as §1, with “I,” for “H,”, “2” for “1”, “XRPD” for “XPRD”, “I” for “H”, “2.” for “1.”

[2] = Drying under vacuum at 45° C. (solid form change); format: physicochemical; settings: dried under vacuum at 45° C.
Description: Apremilast Form J, a solvate, is a unique crystalline phase. […] FIG. 3 is a representative XRPD pattern for a representative sample of apremilast Form J made according to Example 3.
(§2) Apremilast Form M, a solvate, is a unique crystalline phase. FIG. 5 is a representative XRPD pattern for a representative sample of apremilast Form M made according to Example 5.
[…] The resulting solids are analyzed by XRPD and identified as apremilast Form K.

phosphodiesterase (PDE4) = settings: cited from earlier work
[3] = tested on: human rheumatoid synovial cells; settings: cited from earlier work
[4] = Moisture uptake on exposure to air (DSC/TGA); format: physicochemical; settings: DSC thermogram and TGA plot show water in sample
Description: DSC data were collected using a TA Instruments Q10 DSC. Approximately, samples (2-8 mg) were placed in unsealed but covered hermetic alodined aluminum sample pans and scanned from 30 to 300° C. at a rate of 10° C./min under a nitrogen purge of 50 mL/min.
TGA data were collected using a TA Instruments TGA Q500. Approximately, samples (5-10 mg) were placed in an open, pre-tared aluminum sample pan and scanned from 25 to 300° C. at a rate of 10° C./min using a nitrogen purge at 60 mL/min.
(§3) Apremilast Form K, an anhydrous form, is a unique crystalline phase. […] FIG. 4 is a representative XRPD pattern for a representative sample of apremilast Form K made according to Example 4.

[5] = Exposure to humidity (XRPD); format: physicochemical; settings: exposed to high humidity
Description: (§4) XRPD patterns were obtained using a Bruker D8 Advance equipped with a Cu Kα radiation source (λ=1.54° A), a 9-position sample holder and a LYNXEYE super speed detector. Samples were placed on zero-background, silicon plate holders for analysis. One skilled in the art would recognize that the ° 2θ values and the relative intensity values are generated by performing a peak search on the measured data and the d-spacing values are calculated by the instrument from the ° 2θ values using Bragg's equation. One skilled in the art would further recognize that the relative intensity for the measured peaks may vary as a result of sample preparation, orientation and instrument used, for example.
as §3, §2

[6] = Prolonged slurry (form conversion, XRPD); format: physicochemical; settings: XRPD FIG. 6
Description: as §4, §2

Compound: CCOc1cc([C@@H](CS(C)(=O)=O)N2C(=O)c3cccc(NC(C)=O)c3C2=O)ccc1OC [Apremilast Form H, (+)-2-[1-(3-ethoxy-4-methoxyphenyl)-2-methylsulfonylethyl]-4-acetylaminoisoindoline-1,3-dione]
- stability under stressed conditions [1]: stable

Compound: CCOc1cc([C@@H](CS(C)(=O)=O)N2C(=O)c3cccc(NC(C)=O)c3C2=O)ccc1OC [Apremilast Form J, (+)-2-[1-(3-ethoxy-4-methoxyphenyl)-2-methylsulfonylethyl]-4-acetylaminoisoindoline-1,3-dione]
- solid form behaviour when dried under vacuum [2]: loses formic acid when dried under vacuum at 45 °C and undergoes a form change, resulting in the anhydrous Form K

Compound: CCOc1cc([C@@H](CS(C)(=O)=O)N2C(=O)c3cccc(NC(C)=O)c3C2=O)ccc1OC [Apremilast, (+)-2-[1-(3-ethoxy-4-methoxyphenyl)-2-methylsulfonylethyl]-4-acetylaminoisoindoline-1,3-dione]
- PDE4 inhibition (phosphodiesterase (PDE4)): inhibits PDE4
- inhibition of spontaneous production of TNF-alpha [3]: inhibits spontaneous production of TNF-alpha

The next lines start with results.

- moisture uptake when exposed to air [4]: picks up moisture
- form change when exposed to humidity [5]: does not undergo a significant change
Compound: CCOc1cc([C@@H](CS(C)(=O)=O)N2C(=O)c3cccc(NC(C)=O)c3C2=O)ccc1OC [Form K, (+)-2-[1-(3-ethoxy-4-methoxyphenyl)-2-methylsulfonylethyl]-4-acetylaminoisoindoline-1,3-dione]

- form conversion upon prolonged slurry [6]: converts to apremilast
Compound: CCOc1cc([C@@H](CS(C)(=O)=O)N2C(=O)c3cccc(NC(C)=O)c3C2=O)ccc1OC [Form M, (+)-2-[1-(3-ethoxy-4-methoxyphenyl)-2-methylsulfonylethyl]-4-acetylaminoisoindoline-1,3-dione]
- solid form behaviour when dried under vacuum [2]: tends to lose some of the acetic acid when dried under vacuum at 45 °C and results in a semi-crystalline form
